Experimental data as given in paper PMC6325200, “Effects of Microplate Type and Broth Additives on Microdilution MIC Susceptibility Assays” (Antimicrobial Agents and Chemotherapy, 2018).
Converted amounts (≈) assume the structure as drawn.

Tests used:
E. coli = settings: literature value; cited from earlier work
E. coli ATCC 25922 = experiment: microbe, parasite or virus in culture; settings: n = 2
Description: A positive control of a row of just the bacteria and a negative control of only the medium were included for every plate tested.
The compounds along with standard antibiotics were serially diluted 2-fold across the 96-well plates. […] A sample of each culture was then diluted 40-fold in fresh MH broth (in presence and absence of Tween) and incubated at 37°C for 2 to 3 h.
For experiments in the presence of surfactant, 2% beractant (25 mg/ml) was added to the mid-log-phase cultures and mixed gently and added to all the 96-well plates. For experiments in the presence of serum, a mixture of 50% of human serum along with 50% MHB was prepared and used throughout the experiment.

A. baumannii ATCC 19606 = experiment: microbe, parasite or virus in culture; settings: Acinetobacter baumannii, n = 2
Summary of the method: (§1)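 Every plate included two controls, one row of bacteria alone and one of medium only. Test agents and standard antibiotics underwent twofold dilution series in 96-well format, and cultures were diluted 40-fold into MH broth in the presence or absence of Tween before 2–3 h at 37°C.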

P. aeruginosa ATCC 10145 = experiment: microbe, parasite or virus in culture; settings: Pseudomonas aeruginosa, n = 2
Summary of the method: as §1

K. pneumoniae ATCC 13883 = experiment: microbe, parasite or virus in culture; settings: Klebsiella pneumoniae, n = 2
Summary of the method: as §1

## CC1(C)S[C@@H]2[C@H](NC(=O)Cc3ccccc3)C(=O)N2[C@H]1C(=O)O [Penicillin G, penicillin G]
E. coli
  MIC (literature): 16–64 ([71]) µg/ml
E. coli ATCC 25922; Corning PS plate, MHB −T80, no additive
  MIC: 32 to 64 µg/mL
E. coli ATCC 25922; Escherichia coli, ATCC25922, 24 h, Corning NBS, MH + 2% LHB, 2% LS
  MIC: 32 to 64 µg/mL
E. coli ATCC 25922; Escherichia coli, ATCC25922, 24 h, Corning NBS, MH + 2% LHB, 50% HS
  MIC: 32 to 64 µg/mL
E. coli ATCC 25922; Escherichia coli, ATCC25922, 24 h, Corning NBS, MH + 2% LHB, no additive
  MIC: 32 to 64 µg/mL
E. coli ATCC 25922; Escherichia coli, ATCC25922, 24 h, Corning NBS, MH + T80, 2% LS
  MIC: 32 µg/mL
E. coli ATCC 25922; Escherichia coli, ATCC25922, 24 h, Corning NBS, MH + T80, 50% HS
  MIC: 32 to 64 µg/mL
E. coli ATCC 25922; Escherichia coli, ATCC25922, 24 h, Corning PS, MH + 2% LHB, 2% LS
  MIC: 32 to 64 µg/mL
E. coli ATCC 25922; Escherichia coli, ATCC25922, 24 h, Corning PS, MH + 2% LHB, no additive
  MIC: 64 µg/mL
E. coli ATCC 25922; Escherichia coli, ATCC25922, 24 h, Corning PS, MH + T80, 2% LS
  MIC: 32 to 64 µg/mL
E. coli ATCC 25922; Escherichia coli, ATCC25922, 24 h, Corning PS, MH + T80, 50% HS
  MIC: 64 µg/mL
E. coli ATCC 25922; Escherichia coli, ATCC25922, 24 h, Corning TC, MH + 2% LHB, 2% LS
  MIC: 32 to 64 µg/mL
E. coli ATCC 25922; Escherichia coli, ATCC25922, 24 h, Corning TC, MH + 2% LHB, 50% HS
  MIC: 32 to 64 µg/mL
E. coli ATCC 25922; Escherichia coli, ATCC25922, 24 h, Corning TC, MH + 2% LHB, no additive
  MIC: 64 µg/mL
E. coli ATCC 25922; Escherichia coli, ATCC25922, 24 h, Corning TC, MH + T80, 2% LS
  MIC: 32 to 64 µg/mL
E. coli ATCC 25922; Escherichia coli, ATCC25922, 24 h, Corning TC, MH + T80, 50% HS
  MIC: 64 µg/mL
E. coli ATCC 25922; Escherichia coli, ATCC25922, 24 h, Trek PS, MH + 2% LHB, 2% LS
  MIC: 32 µg/mL
E. coli ATCC 25922; Escherichia coli, ATCC25922, 24 h, Trek PS, MH + 2% LHB, 50% HS
  MIC: 32 µg/mL
E. coli ATCC 25922; Escherichia coli, ATCC25922, 24 h, Trek PS, MH + 2% LHB, no additive
  MIC: 32 µg/mL
E. coli ATCC 25922; Escherichia coli, ATCC25922, 24 h, Trek PS, MH + T80, 2% LS
  MIC: 32 µg/mL
E. coli ATCC 25922; Escherichia coli, ATCC25922, 24 h, Trek PS, MH + T80, 50% HS
  MIC: 32 µg/mL
E. coli ATCC 25922; Escherichia coli, ATCC25922, Corning NBS plate, MHB +0.002% T80, no further additive
  MIC: 64 µg/mL (≈ 191 µM)
E. coli ATCC 25922; Escherichia coli, ATCC25922, Corning NBS plate, MHB −T80, no additive
  MIC: 64 µg/mL (≈ 191 µM)
E. coli ATCC 25922; Escherichia coli, ATCC25922, Corning NBS, MH, 2% LS
  MIC: 64 µg/mL (≈ 191 µM)
E. coli ATCC 25922; Escherichia coli, ATCC25922, Corning NBS, MH, 50% HS
  MIC: 64 µg/mL (≈ 191 µM)
E. coli ATCC 25922; Escherichia coli, ATCC25922, Corning PS plate, MHB +0.002% T80, no further additive
  MIC: 64 µg/mL (≈ 191 µM)
E. coli ATCC 25922; Escherichia coli, ATCC25922, Corning PS plate, MHB −T80, no additive
  MIC: 32 to 64 µg/mL (≈ 95.7 to 191 µM)
E. coli ATCC 25922; Escherichia coli, ATCC25922, Corning PS, MH, 50% HS
  MIC: 64 µg/mL (≈ 191 µM)
E. coli ATCC 25922; Escherichia coli, ATCC25922, Corning TC plate, MHB +0.002% T80, no further additive
  MIC: 64 µg/mL (≈ 191 µM)
E. coli ATCC 25922; Escherichia coli, ATCC25922, Corning TC plate, MHB −T80, no additive
  MIC: 32 µg/mL (≈ 95.7 µM)
E. coli ATCC 25922; Escherichia coli, ATCC25922, Corning TC, MH, 2% LS
  MIC: 64 µg/mL (≈ 191 µM)
E. coli ATCC 25922; Escherichia coli, ATCC25922, Corning TC, MH, 50% HS
  MIC: 64 µg/mL (≈ 191 µM)
E. coli ATCC 25922; Escherichia coli, ATCC25922, Nunc PS plate, MHB +0.002% T80
  MIC: 64 µg/mL (≈ 191 µM)
E. coli ATCC 25922; Escherichia coli, ATCC25922, Nunc PS plate, MHB −T80
  MIC: 32 µg/mL (≈ 95.7 µM)
E. coli ATCC 25922; Escherichia coli, ATCC25922, Nunc U TC plate, MHB +0.002% T80
  MIC: 64 µg/mL (≈ 191 µM)
E. coli ATCC 25922; Escherichia coli, ATCC25922, Nunc U TC plate, MHB −T80
  MIC: 32 µg/mL (≈ 95.7 µM)
E. coli ATCC 25922; Escherichia coli, ATCC25922, Nunc flat TC plate, MHB +0.002% T80
  MIC: 64 µg/mL (≈ 191 µM)
E. coli ATCC 25922; Escherichia coli, ATCC25922, Nunc flat TC plate, MHB −T80
  MIC: 32 to 64 µg/mL (≈ 95.7 to 191 µM)
E. coli ATCC 25922; Escherichia coli, ATCC25922, Trek PS plate, MHB +0.002% T80, no further additive
  MIC: 32 to 64 µg/mL (≈ 95.7 to 191 µM)
E. coli ATCC 25922; Escherichia coli, ATCC25922, Trek PS plate, MHB −T80, no additive
  MIC: 64 µg/mL (≈ 191 µM)
E. coli ATCC 25922; Escherichia coli, ATCC25922, Trek PS, MH, 2% LS
  MIC: 64 µg/mL (≈ 191 µM)
E. coli ATCC 25922; Trek PS plate, MHB +0.002% T80, no further additive
  MIC: 32 to 64 µg/mL
A. baumannii ATCC 19606; ATCC19606, Corning NBS, MHB +T80
  MIC: > 64 µg/mL
A. baumannii ATCC 19606; ATCC19606, Corning NBS, MHB -T80
  MIC: > 64 µg/mL
A. baumannii ATCC 19606; ATCC19606, Corning PS, MHB +T80
  MIC: > 64 µg/mL
A. baumannii ATCC 19606; ATCC19606, Corning PS, MHB -T80
  MIC: > 64 µg/mL
A. baumannii ATCC 19606; ATCC19606, Corning TC, MHB +T80
  MIC: > 64 µg/mL
A. baumannii ATCC 19606; ATCC19606, Corning TC, MHB -T80
  MIC: > 64 µg/mL
P. aeruginosa ATCC 10145; ATCC10145, Corning NBS, MHB +T80
  MIC: > 64 µg/mL
P. aeruginosa ATCC 10145; ATCC10145, Corning NBS, MHB -T80
  MIC: > 64 µg/mL
P. aeruginosa ATCC 10145; ATCC10145, Corning PS, MHB +T80
  MIC: > 64 µg/mL
P. aeruginosa ATCC 10145; ATCC10145, Corning PS, MHB -T80
  MIC: > 64 µg/mL
P. aeruginosa ATCC 10145; ATCC10145, Corning TC, MHB +T80
  MIC: > 64 µg/mL
P. aeruginosa ATCC 10145; ATCC10145, Corning TC, MHB -T80
  MIC: > 64 µg/mL
K. pneumoniae ATCC 13883; ATCC13883, Corning NBS, MHB +T80
  MIC: > 64 µg/mL
K. pneumoniae ATCC 13883; ATCC13883, Corning NBS, MHB -T80
  MIC: > 64 µg/mL
K. pneumoniae ATCC 13883; ATCC13883, Corning PS, MHB +T80
  MIC: > 64 µg/mL
K. pneumoniae ATCC 13883; ATCC13883, Corning PS, MHB -T80
  MIC: > 64 µg/mL
K. pneumoniae ATCC 13883; ATCC13883, Corning TC, MHB +T80
  MIC: > 64 µg/mL
K. pneumoniae ATCC 13883; ATCC13883, Corning TC, MHB -T80
  MIC: > 64 µg/mL
